“And” between values parts separate entries of the source, which are not always exact repeats. Equal entries are not always repeated.
Assay: xn = mol fraction of the nth substance listed

O=S(=O)(Cl)Cl + Cc1cc(C)cc(C)c1
298.15 K, 101 kPa
Conditions | viscosity [mPa·s]
x1 = 0.172 | 0.6735
x1 = 0.323 | 0.6885
x1 = 0.515 | 0.6997
x1 = 0.645 | 0.7028
x1 = 0.669 | 0.7025
x1 = 0.804 | 0.6976

Cc1cccc(C)c1 + Cc1ccc(C)cc1
viscosity [mPa·s], 101.3 kPa
Conditions | 298.15 K | 303.15 K
x1 = 0.0856 | – | 0.5666
x1 = 0.0857 | 0.6046 | –
x1 = 0.1427 | – | 0.5659
x1 = 0.1428 | 0.6026 | –
x1 = 0.2528 | 0.5998 | 0.5651
x1 = 0.3046 | – | 0.5648
x1 = 0.3922 | 0.5968 | 0.5643
x1 = 0.474 | 0.5955 | 0.5641
x1 = 0.5823 | – | 0.5636
x1 = 0.5824 | 0.5942 | –
x1 = 0.6995 | 0.5935 | 0.5627
x1 = 0.8337 | 0.5928 | –
x1 = 0.8339 | – | 0.5614
x1 = 0.9538 | 0.5899 | 0.5602

O=S1(=O)CCCC1 + Cc1ccc(C)cc1
viscosity
Conditions | x2 = 0.1118 | x2 = 0.2206 | x2 = 0.3266 | x2 = 0.4301 | x2 = 0.531 | x2 = 0.6293 | x2 = 0.7252 | x2 = 0.8191 | x2 = 0.9106
303.15 K, 101 kPa | 6.156 mPa·s and 6.156 mPa·s | 4.093 mPa·s and 4.093 mPa·s | 2.887 mPa·s and 2.887 mPa·s | 2.143 mPa·s and 2.143 mPa·s | 1.608 mPa·s and 1.608 mPa·s | 1.253 mPa·s and 1.253 mPa·s | 0.989 mPa·s and 0.9893 mPa·s | 0.812 mPa·s and 0.8122 mPa·s | 0.673 mPa·s and 0.6727 mPa·s
303.15 K, 101.3 kPa | 6.156 mPa·s | 4.093 mPa·s | 2.887 mPa·s | 2.143 mPa·s | 1.608 mPa·s | 1.253 mPa·s | 0.9893 mPa·s | 0.8122 mPa·s | 0.6727 mPa·s
313.15 K, 101 kPa | 4.883 mPa·s | 3.341 mPa·s | 2.384 mPa·s | 1.791 mPa·s | 1.351 mPa·s | 1.066 mPa·s | 0.8516 mPa·s | 0.7111 mPa·s | 0.5929 mPa·s
323.15 K, 101 kPa | 3.964 mPa·s and 3.964 mPa·s | 2.74 mPa·s and 2.74 mPa·s | 2 mPa·s and 2 mPa·s | 1.526 mPa·s and 1.526 mPa·s | 1.166 mPa·s and 1.166 mPa·s | 0.925 mPa·s and 0.9254 mPa·s | 0.747 mPa·s and 0.7473 mPa·s | 0.627 mPa·s and 0.6269 mPa·s | 0.53 mPa·s and 0.53 mPa·s
323.15 K, 101.3 kPa | 3.964 mPa·s | 2.74 mPa·s | 2 mPa·s | 1.526 mPa·s | 1.166 mPa·s | 0.9254 mPa·s | 0.7473 mPa·s | 0.6269 mPa·s | 0.53 mPa·s

Nc1ccccc1Cl + Cc1ccc(Cl)cc1
viscosity [mPa·s], 101 kPa
Conditions | x1 = 0.1012 | x1 = 0.2102 | x1 = 0.3125 | x1 = 0.4056 | x1 = 0.5142 | x1 = 0.6125 | x1 = 0.6952 | x1 = 0.7859 | x1 = 0.8859
303.15 K | 0.9617 | 1.175 | 1.405 | 1.644 | 1.963 | 2.287 | 2.586 | 2.936 | 3.344
308.15 K | 0.8921 | 1.097 | 1.318 | 1.543 | 1.833 | 2.12 | 2.377 | 2.674 | 3.014
313.15 K | 0.8377 | 1.031 | 1.238 | 1.446 | 1.711 | 1.968 | 2.195 | 2.451 | 2.737
318.15 K | 0.7836 | 0.9716 | 1.17 | 1.368 | 1.616 | 1.852 | 2.054 | 2.275 | 2.511

O=S1(=O)CCCC1 + Cc1cccc(C)c1
viscosity [mPa·s], 101.3 kPa
Conditions | x2 = 0.1117 | x2 = 0.2206 | x2 = 0.3267 | x2 = 0.4301 | x2 = 0.531 | x2 = 0.6294 | x2 = 0.7254 | x2 = 0.8191 | x2 = 0.9106
303.15 K | 6.231 | 4.214 | 2.961 | 2.171 | 1.65 | 1.275 | 1.007 | 0.7887 | 0.6551
323.15 K | 4.014 | 2.798 | 2.042 | 1.543 | 1.204 | 0.9507 | 0.7638 | 0.6203 | 0.5221

Nc1ccccc1Cl + Cc1cccc(Cl)c1
viscosity [mPa·s], 101 kPa
Conditions | x1 = 0.1012 | x1 = 0.2056 | x1 = 0.3125 | x1 = 0.4056 | x1 = 0.5026 | x1 = 0.6025 | x1 = 0.7145 | x1 = 0.818 | x1 = 0.91
303.15 K | 0.9087 | 1.109 | 1.348 | 1.587 | 1.867 | 2.19 | 2.595 | 3.009 | 3.408
308.15 K | 0.8581 | 1.047 | 1.269 | 1.489 | 1.743 | 2.032 | 2.386 | 2.74 | 3.073
313.15 K | 0.812 | 0.99 | 1.199 | 1.402 | 1.634 | 1.893 | 2.205 | 2.507 | 2.786
318.15 K | 0.7685 | 0.9398 | 1.138 | 1.329 | 1.544 | 1.78 | 2.056 | 2.316 | 2.545

Source: the CheMixHub viscosity set
